The term IC50 denotes the midpoint of a concentration-inhibition curve.

The structures appear in SMILES notation. Square brackets hold non-standard residues; d marks the D form. Peptide text beside a SMILES is read from it. Ahx = NCCCCCC(=O)O

Common to all, as to assay type: cell-based
A short description of experiment [1]: Inhibition of HIV1 HXB2 gp160-mediated cell-cell fusion between viral envelope expressing human HL2/3 cells to human TZM-bl cells expressing CD4, tat, and rev by luciferase reporter gene assay. The note with it: Human immunodeficiency virus 1, HXB2, TZM-bl. (In general: In a reporter assay the amount or activity of a reporter protein is the signal.)
In experiment [2] the test system is TZM-bl. The experiment can be described thus: Inhibition of HIV1 HXB2 gp160-mediated cell-cell fusion between viral envelope expressing human HL2/3 cells to human TZM-bl cells expressing CD4, tat, and rev by luciferase reporter gene assay relative to SC22EK. The settings on record: Human immunodeficiency virus 1.
In experiment [3] the test system is TZM-bl. The experiment can be described thus: Inhibition of HIV1 HXB2 gp160-mediated cell-cell fusion between viral envelope expressing human HL2/3 cells to human TZM-bl cells expressing CD4, tat, and rev by luciferase reporter gene assay relative to C22. The note with it: Human immunodeficiency virus 1.

`CC[C@H](C)[C@H](NC(=O)[C@H](CC(C)C)NC(=O)[C@H](CCC(=O)O)NC(=O)[C@H](CCC(=O)O)NC(=O)[C@@H](NC(=O)[C@H](CCCCN)NC(=O)[C@H](CCCCN)NC(=O)[C@@H](NC(=O)[C@H](Cc1ccc(O)cc1)NC(=O)[C@H](CCC(=O)O)NC(=O)[C@H](CCC(=O)O)NC(=O)[C@@H](NC(=O)[C@H](CCCCN)NC(=O)[C@H](CCCCN)NC(=O)[C@H](CC(=O)O)NC(=O)[C@H](Cc1c[nH]c2ccccc12)NC(=O)[C@H](CCC(=O)O)NC(=O)[C@H](CCC(=O)O)NC(=O)[C@H](Cc1c[nH]c2ccccc12)NC(=O)CCCCCNC(=O)[C@H](CS)NC(C)=O)[C@@H](C)CC)[C@@H](C)O)[C@@H](C)CC)C(=O)N[C@@H](CCCCN)C(=O)N[C@@H](CCCCN)C(=O)N[C@@H](CO)C(=O)O` (Ac-C[Ahx]WEEWDKKIEEYTKKIEELIKKS-OH): the IC50 in experiment [1] is 38.6 nM. The Ratio in the experiment with TZM-bl [2] is 8.97.

Compound `CC[C@H](C)[C@H](NC(=O)[C@H](CC(C)C)NC(=O)[C@H](CO)NC(=O)[C@H](Cc1cnc[nH]1)NC(=O)[C@@H](NC(=O)[C@H](CC(C)C)NC(=O)[C@H](CO)NC(=O)[C@@H](NC(=O)[C@H](Cc1ccc(O)cc1)NC(=O)[C@H](CC(N)=O)NC(=O)[C@H](CC(N)=O)NC(=O)[C@@H](NC(=O)[C@H](CCC(=O)O)NC(=O)[C@H](CCCNC(=N)N)NC(=O)[C@H](CC(=O)O)NC(=O)[C@H](Cc1c[nH]c2ccccc12)NC(=O)[C@H](CCC(=O)O)NC(=O)[C@H](CCSC)NC(=O)[C@H](Cc1c[nH]c2ccccc12)NC(=O)CCCCCNC(=O)[C@H](CS)NC(C)=O)[C@@H](C)CC)[C@@H](C)O)[C@@H](C)CC)C(=O)N[C@@H](CCC(=O)O)C(=O)N[C@@H](CCC(=O)O)C(=O)N[C@@H](CO)C(=O)O` (Ac-C[Ahx]WMEWDREINNYTSLIHSLIEES-OH) yielded an IC50 in experiment [1] of 561 nM. Further, the Ratio in the experiment on TZM-bl [3] was 2.21.

Values taken from ChEMBL document CHEMBL2412996, “Increase of anti-HIV activity of C-peptide fusion inhibitors using a bivalent drug design approach” (Bioorg Med Chem Lett, 2013).
